Legend:
Experiment in all cases: NCI-60 single-dose antiproliferative assay (SRB)
Type in all cases: cell-based
A549/ATCC = conditions: Homo sapiens, 10 μM single dose, Non-small cell lung cancer, read-out: Cell Growth inhibition Percent
In short: (§1)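 A 48 h exposure to 10 µM compound, in triplicate wells, followed 24 h of cell attachment in RPMI 1640 with 5% FBS and 2 mM glutamine. TCA-fixed cells were stained with SRB and read at 515 nm to give percent growth relative to controls.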

A498 = conditions: Homo sapiens; 10 μM single dose; A498, Renal cancer; read-out: Cell Growth inhibition Percent
In short: as §1

SW-620 = conditions: Homo sapiens; 10 μM single dose; SW-620, Colon cancer; read-out: Cell Growth inhibition Percent
In short: as §1

SN12C = conditions: Homo sapiens, 10 μM single dose, Renal cancer, read-out: Cell Growth inhibition Percent
In short: as §1

UACC-62 = conditions: Homo sapiens; 10 μM single dose; UACC-62, Melanoma; read-out: Cell Growth inhibition Percent
In short: as §1

U251 = conditions: Homo sapiens, U-251; 10 μM single dose; U251, CNS cancer; read-out: Cell Growth inhibition Percent
In short: as §1

BT-549 = conditions: Homo sapiens; 10 μM single dose; BT-549, Breast cancer; read-out: Cell Growth inhibition Percent
In short: as §1

SF-295 = conditions: Homo sapiens; 10 μM single dose; SF-295, CNS cancer; read-out: Cell Growth inhibition Percent
In short: as §1

NCI-H322M = conditions: Homo sapiens, 10 μM single dose, Non-small cell lung cancer, read-out: Cell Growth inhibition Percent
In short: as §1

K-562 = conditions: Homo sapiens, K562; 10 μM single dose; K-562, Leukemia; read-out: Cell Growth inhibition Percent
In short: as §1

NCI-H460 = conditions: Homo sapiens; 10 μM single dose; NCI-H460, Non-small cell lung cancer; read-out: Cell Growth inhibition Percent
In short: as §1

DU-145 = conditions: Homo sapiens; 10 μM single dose; DU-145, Prostate cancer; read-out: Cell Growth inhibition Percent
In short: as §1

MOLT-4 = conditions: Homo sapiens; 10 μM single dose; MOLT-4, Leukemia; read-out: Cell Growth inhibition Percent
In short: as §1

MDA-MB-468 = conditions: Homo sapiens; 10 μM single dose; MDA-MB-468, Breast cancer; read-out: Cell Growth inhibition Percent
In short: as §1

HCT-116 = conditions: Homo sapiens; 10 μM single dose; HCT-116, Colon cancer; read-out: Cell Growth inhibition Percent
In short: as §1

CCRF-CEM = conditions: Homo sapiens, 10 μM single dose, Leukemia, read-out: Cell Growth inhibition Percent
In short: as §1

OVCAR-3 = conditions: Homo sapiens; 10 μM single dose; OVCAR-3, Ovarian Cancer; read-out: Cell Growth inhibition Percent
In short: as §1

HT29 = conditions: Homo sapiens, HT-29; 10 μM single dose; HT29, Colon cancer; read-out: Cell Growth inhibition Percent
In short: as §1

Row | SMILES | inhibition at 10 µM (A549/ATCC) [%] | inhibition at 10 µM (A498) [%] | inhibition at 10 µM (SW-620) [%] | inhibition at 10 µM (SN12C) [%] | inhibition at 10 µM (UACC-62) [%] | inhibition at 10 µM (U251) [%] | inhibition at 10 µM (BT-549) [%] | inhibition at 10 µM (SF-295) [%] | inhibition at 10 µM (NCI-H322M) [%] | inhibition at 10 µM (K-562) [%] | inhibition at 10 µM (NCI-H460) [%] | inhibition at 10 µM (DU-145) [%] | inhibition at 10 µM (MOLT-4) [%] | inhibition at 10 µM (MDA-MB-468) [%] | inhibition at 10 µM (HCT-116) [%] | inhibition at 10 µM (CCRF-CEM) [%] | inhibition at 10 µM (OVCAR-3) [%] | inhibition at 10 µM (HT29) [%]
1 | O=C1Nc2ccccc2C1=CNc1ccc(C(=O)O)cc1 [Compound 4c, 4-{[(2-Oxoindolin-3-ylidene)methyl]amino}benzoic acid] | 9.11 | 20.1 | 4.95 | 24.8 |  |  |  |  |  |  |  |  |  |  |  |  |  | 
2 | NS(=O)(=O)c1nnc(NC=C2C(=O)Nc3ccccc32)s1 [Compound 4d, 5-{[(2-Oxoindolin-3-ylidene)methyl]amino}-1,3,4-thiadiazole-2-sulfonamide] |  |  |  |  | 3.05 | 0.06 | 1.21 | 0.84 |  |  |  |  |  |  |  |  |  | 
3 | NS(=O)(=O)N/C=C1/C(=O)Nc2ccccc21 [Compound 5, 3-(sulfamidmethylene)indoline-2-one] |  |  |  |  | 4.35 | 2.06 | 0.96 |  | 3.18 |  |  |  |  |  |  |  |  | 
4 | O=C1Nc2ccccc2C1=CNc1ccc(C(=O)Nc2ccc(S(=O)(=O)Nc3ncccn3)cc2)cc1 [Compound 9b, 4-{[(2-Oxoindolin-3-ylidene)methyl]amino}-N-{4-[N-(pyrimidin-2-yl)sulfamoyl]phenyl}benzamide] |  | 9.11 |  | 20.5 | 7.84 |  | 27.1 |  |  | 3.5 | 1.64 |  |  |  |  |  |  | 
5 | NS(=O)(=O)c1ccc(NCc2ccc(NC=C3C(=O)Nc4ccccc43)cc2)cc1 [Compound 11a, 4-{[4-({[2-Oxoindolin-3-ylidene]methyl}amino)benzyl]amino}benzenesulfonamide] | 4.86 |  |  | 22.9 |  |  |  |  |  | 0.06 |  | 2.9 | 1.28 |  |  |  |  | 
6 | O=C1Nc2ccccc2C1=CNc1ccc(CNc2ccc(S(=O)(=O)Nc3ncccn3)cc2)cc1 [Compound 11b, 4-{[4-({[2-Oxoindolin-3-ylidene]methyl}amino)benzyl]amino}-N-(pyrimidin-2-yl)benzenesulfonamide] |  |  | 4.6 |  | 3.27 | 14.4 | 6.46 | 0.84 |  | 32.8 | 4.26 |  |  | 7.66 | 13.4 | 25.4 |  | 
7 | O=C1Nc2ccccc2C1=CNc1ccc(C(=O)C=CNc2nccs2)cc1 [Compound 13c, 3-{[(4-{3-[Thiazol-2-ylamino]acryloyl}phenyl)amino]methylene}indolin-2-one] | 21.6 |  |  | 11.6 |  |  | 13.6 |  |  | 24.8 | 7.04 |  |  | 23.5 | 21.9 | 12.1 | 3.91 | 8.13
8 | O=C(Nc1ccc(NC=C2C(=O)Nc3ccccc32)cc1)Nc1nccs1 [Compound 15c, 1-{4-[((2-Oxoindolin-3-ylidene)methyl)amino]phenyl}-3-(thiazol-2-yl)urea] | 43.4 | 108 | 78.6 | 32 | 75.1 | 58 |  | 29.4 | 47.2 | 82.7 | 83.2 | 59.5 | 67.8 | 102 | 73 |  | 84.6 | 82.1

— article PMC10353187, “Discovery of a new potent oxindole multi-kinase inhibitor among a series of designed 3-alkenyl-oxindoles with ancillary carbonic anhydrase inhibitory activity as antiproliferative agents” (BMC Chemistry, 2023)
